Reference: ChEMBL document CHEMBL4406853 (Eur J Med Chem, 2019)
Non-standard residues stand in square brackets, D forms with d. Residues, ends and D or L forms follow the SMILES beside them. ξ: configuration not given here. ξP = O=C(O)C1CCCN1

Key:
Mu-type opioid receptor [1] = molecular target: T1, Mu-type opioid receptor (Homo sapiens, UniProt P35372); experiment: Inhibition of mu opioid receptor (unknown origin) expressed in HEK293 cells assessed as inhibition of forskolin-stimulated […] preincubated for 30 mins followed by forskolin-stimulation and measured after 60 mins; type: cell-based
T1 sequence (P35372 whole entry): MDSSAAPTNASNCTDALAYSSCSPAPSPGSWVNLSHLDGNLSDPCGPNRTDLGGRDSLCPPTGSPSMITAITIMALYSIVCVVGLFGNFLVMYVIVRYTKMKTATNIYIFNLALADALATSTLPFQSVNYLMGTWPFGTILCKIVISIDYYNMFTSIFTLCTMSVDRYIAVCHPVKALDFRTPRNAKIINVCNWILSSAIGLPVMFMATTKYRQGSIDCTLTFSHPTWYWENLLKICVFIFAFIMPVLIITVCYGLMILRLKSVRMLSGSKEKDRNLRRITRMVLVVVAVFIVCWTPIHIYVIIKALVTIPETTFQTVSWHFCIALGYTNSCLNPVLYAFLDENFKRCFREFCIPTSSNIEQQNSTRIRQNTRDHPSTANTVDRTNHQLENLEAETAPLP

Mu-type opioid receptor [2] = molecular target: T1, Mu-type opioid receptor; experiment: Inhibition of mu opioid receptor (unknown origin) expressed in HEK293 cells assessed as inhibition of forskolin-stimulated intracellular cAMP accumulation preincubated for 30 mins followed by forskolin-stimulation and measured after 60 mins; type: functional, cell-based
[3] = molecular target: T2, Kappa-type opioid receptor (Cavia porcellus, UniProt P41144); experiment: Agonist activity at kappa opioid receptor in guinea pig brain membranes by [35S]-GTPgammaS binding assay; type: functional, cell membranes
T2 sequence (P41144 whole entry): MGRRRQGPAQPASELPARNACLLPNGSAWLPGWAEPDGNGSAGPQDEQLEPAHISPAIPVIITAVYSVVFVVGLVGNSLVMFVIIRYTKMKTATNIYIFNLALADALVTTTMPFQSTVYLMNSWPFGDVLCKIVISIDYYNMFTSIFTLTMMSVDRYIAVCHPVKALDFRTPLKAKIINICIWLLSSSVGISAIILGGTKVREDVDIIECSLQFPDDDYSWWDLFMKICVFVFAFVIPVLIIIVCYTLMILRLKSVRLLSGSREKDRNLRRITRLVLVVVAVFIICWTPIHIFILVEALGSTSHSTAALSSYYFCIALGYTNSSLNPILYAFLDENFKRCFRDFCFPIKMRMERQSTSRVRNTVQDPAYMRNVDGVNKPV

Mu-type opioid receptor [4] = molecular target: T3, Mu-type opioid receptor (Cavia porcellus, UniProt P97266); experiment: Inhibition of mu opioid receptor in guinea pig brain membranes; type: cell membranes
T3 sequence (P97266 whole entry): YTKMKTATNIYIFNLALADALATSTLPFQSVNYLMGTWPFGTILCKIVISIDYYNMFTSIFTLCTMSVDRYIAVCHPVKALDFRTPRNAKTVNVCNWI

[5] = molecular target: T2, Kappa-type opioid receptor; experiment: Inhibition of kappa opioid receptor in guinea pig brain membranes; type: cell membranes
[6] = Agonist activity at delta opioid receptor in guinea pig brain membranes by [35S]-GTPgammaS binding assay; type: cell membranes, Cavia porcellus
Mu-type opioid receptor [7] = molecular target: T3, Mu-type opioid receptor; experiment: Agonist activity at mu opioid receptor in guinea pig brain membranes by [35S]-GTPgammaS binding assay; type: functional, cell membranes
[8] = Inhibition of delta opioid receptor in guinea pig brain membranes; type: cell membranes, Cavia porcellus
[9] = molecular target: Mu-type opioid receptor (Cavia porcellus) (UniProt P97266); experiment: Agonist activity at mu opioid receptor in guinea pig brain membranes by [35S]-GTPgammaS binding assay relative to control; type: functional, cell membranes
Sequence of Mu-type opioid receptor (Cavia porcellus) (P97266 whole entry): as above

[10] = molecular target: Kappa-type opioid receptor (Cavia porcellus) (UniProt P41144); experiment: Agonist activity at kappa opioid receptor in guinea pig brain membranes by [35S]-GTPgammaS binding assay relative to control; type: functional, cell membranes
Sequence of Kappa-type opioid receptor (Cavia porcellus) (P41144 whole entry): as the sequence (P41144 whole entry) above

Cavia porcellus = organism: Cavia porcellus; experiment: Agonist activity at delta opioid receptor in guinea pig brain membranes by [35S]-GTPgammaS binding assay relative to control; type: cell membranes
[11] = molecular target: T4, Kappa-type opioid receptor (Homo sapiens, UniProt P41145); experiment: Binding affinity to kappa opioid receptor (unknown origin)
T4 sequence (P41145 whole entry): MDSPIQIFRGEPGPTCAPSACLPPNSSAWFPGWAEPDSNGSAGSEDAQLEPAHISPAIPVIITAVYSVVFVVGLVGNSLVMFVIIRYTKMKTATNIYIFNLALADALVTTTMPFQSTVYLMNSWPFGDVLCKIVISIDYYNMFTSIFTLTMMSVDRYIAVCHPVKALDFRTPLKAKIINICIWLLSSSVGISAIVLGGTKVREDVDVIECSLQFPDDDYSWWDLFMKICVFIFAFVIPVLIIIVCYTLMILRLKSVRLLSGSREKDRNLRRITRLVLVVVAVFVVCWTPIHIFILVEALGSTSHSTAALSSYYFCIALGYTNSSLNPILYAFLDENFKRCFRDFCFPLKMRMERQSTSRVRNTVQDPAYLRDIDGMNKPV

Mu-type opioid receptor [12] = molecular target: T1, Mu-type opioid receptor; experiment: Displacement of [3H]DAMGO from mu opioid receptor (unknown origin) expressed in HEK293 cells after 1 hr by liquid scintillation counting; type: cell-based
Mus musculus = experiment: Antinociceptive activity in icv dosed mouse; type: functional
[13] = molecular target: T4, Kappa-type opioid receptor; experiment: Inhibition of kappa-opioid receptor (unknown origin) by [35S]-GTPgammaS binding assay; type: functional
Mu-type opioid receptor [14] = molecular target: T1, Mu-type opioid receptor; experiment: Inhibition of mu-opioid receptor (unknown origin) by [35S]-GTPgammaS binding assay; type: functional
[15] = molecular target: T5, Delta-type opioid receptor (Homo sapiens, UniProt P41143); experiment: Inhibition of delta opioid receptor (unknown origin) by radioligand binding assay
T5 sequence (P41143 whole entry): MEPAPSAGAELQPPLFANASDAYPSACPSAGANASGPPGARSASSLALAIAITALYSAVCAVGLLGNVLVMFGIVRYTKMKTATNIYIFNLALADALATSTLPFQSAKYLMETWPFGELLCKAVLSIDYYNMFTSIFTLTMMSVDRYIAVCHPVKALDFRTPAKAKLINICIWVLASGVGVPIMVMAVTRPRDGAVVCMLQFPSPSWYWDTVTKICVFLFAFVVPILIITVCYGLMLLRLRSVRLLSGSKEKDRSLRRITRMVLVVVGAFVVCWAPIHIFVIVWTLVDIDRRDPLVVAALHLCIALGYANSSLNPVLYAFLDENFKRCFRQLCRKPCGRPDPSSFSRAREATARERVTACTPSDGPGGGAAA

Homo sapiens [16] = organism: Homo sapiens; experiment: Selectivity ratio of IC50 for mu opioid receptor (unknown origin) to IC50 for delta opioid receptor (unknown origin) by radioligand binding assay
[17] = molecular target: T5, Delta-type opioid receptor; experiment: Inhibition of full length delta opioid receptor (unknown origin) assessed as increase in beta arrestin 1 recruitment
[18] = molecular target: T5, Delta-type opioid receptor; experiment: Inhibition of full length delta opioid receptor (unknown origin) assessed as inhibition of forskolin-stimulated intracellular cAMP accumulation; type: functional, cell-based
Homo sapiens [19] = organism: Homo sapiens; experiment: Selectivity ratio of IC50 for mu opioid receptor (unknown origin) to IC50 for delta opioid receptor (unknown origin) by MVD assay
[20] = molecular target: T5, Delta-type opioid receptor; experiment: Inhibition of delta opioid receptor (unknown origin) by MVD assay
[21] = molecular target: T5, Delta-type opioid receptor; experiment: Inhibition of full length delta opioid receptor (unknown origin) assessed as increase in beta arrestin 2 recruitment
Mu-type opioid receptor [22] = molecular target: T1, Mu-type opioid receptor; experiment: Inhibition of mu opioid receptor (unknown origin)
[23] = molecular target: T4, Kappa-type opioid receptor; experiment: Agonist activity at kappa opioid receptor (unknown origin) assessed as reduction in beta arrestin recruitment; type: functional
[24] = molecular target: T4, Kappa-type opioid receptor; experiment: Partial agonist activity at kappa opioid receptor (unknown origin) expressed in CHO cells by [35S]-GTPgammaS binding assay relative to control; type: functional, cell-based
[25] = molecular target: T4, Kappa-type opioid receptor; experiment: Agonist activity at kappa opioid receptor (unknown origin) assessed as reduction in beta arrestin recruitment relative to control; type: functional
[26] = molecular target: T4, Kappa-type opioid receptor; experiment: Partial agonist activity at kappa opioid receptor (unknown origin) expressed in CHO cells by [35S]-GTPgammaS binding assay; type: functional, cell-based
Mu-type opioid receptor [27] = molecular target: T1, Mu-type opioid receptor; experiment: Partial agonist activity at mu opioid receptor (unknown origin) expressed in CHO cells by [35S]-GTPgammaS binding assay; type: functional, cell-based
Homo sapiens [28] = organism: Homo sapiens; experiment: Selectivity ratio of Ki for mu opioid receptor (unknown origin) expressed in CHO cells to Ki for delta opioid receptor (unknown origin) expressed in CHO cells; type: cell-based
[29] = molecular target: T4, Kappa-type opioid receptor; experiment: Inhibition of kappa opioid receptor (unknown origin) expressed in CHO cells by [35S]-GTPgammaS binding assay; type: functional, cell-based

C[C@H](Cc1ccsc1)NC(=O)NC[C@H](Cc1ccc2ccccc2c1)N(C)C
EC50 (Mu-type opioid receptor [1]): 0.0524 to 0.0911 µM | EC50 (Mu-type opioid receptor [2]): 0.0524 to 0.0911 µM

CC[C@@H]1CN2CC[C@@]3(O)C(=Nc4cccc(OC)c43)[C@@H]2C[C@@H]1/C(=C\OC)C(=O)OC
EC50 [3]: 0.053 µM | Ki (Mu-type opioid receptor [4]): 0.0072 µM | Ki [5]: > 1 µM | EC50 [6]: 0.053 µM | EC50 (Mu-type opioid receptor [7]): 0.053 µM | Ki [8]: 0.06 µM

CC[C@@H]1CN2CCc3c([nH]c4cccc(OC)c34)[C@@H]2C[C@@H]1/C(=C\OC)C(=O)OC
EC50 [3]: 0.23 µM | Ki (Mu-type opioid receptor [4]): 0.013 µM | Emax [9]: 65% | Ki [5]: 0.123 µM | EC50 [6]: 0.23 µM | Emax [10]: 65% | Emax (Cavia porcellus): 65% | EC50 (Mu-type opioid receptor [7]): 0.23 µM | Ki [8]: 0.155 µM

COC(=O)[C@@H]1C[C@H](OC(=O)CSC#N)C(=O)[C@H]2[C@@]1(C)CC[C@H]1C(=O)O[C@H](c3ccoc3)C[C@]21C [22-THIOCYANATOSALVINORIN A]
Kd [11]: 0.00059 µM

CN(C)[C@H](CNC(=O)NCCc1ccsc1)Cc1ccc2ccccc2c1
EC50 (Mu-type opioid receptor [1]): 0.0524 to 0.243 µM | EC50 (Mu-type opioid receptor [2]): 0.0524 to 0.243 µM

C=C(C(N)=O)C(NC(=O)[C@H](Cc1c[nH]c2ccccc12)NC(=O)[C@@H](C)N(C)C(=O)[C@@H](N)Cc1ccc(O)cc1)c1ccco1 (stereo not given in full)
EC50 (Mu-type opioid receptor [12]): 1450 to 39000 pM

Oc1cccc(CCN(CCc2ccccc2)CC2CCC2)c1
ED50 (Mus musculus): 3.74 nmol

C[C@@H](Cc1ccsc1)NC(=O)NC[C@H](Cc1cccc2ccccc12)N(C)C
EC50 (Mu-type opioid receptor [1]): 0.456 µM | EC50 (Mu-type opioid receptor [2]): 0.456 µM

C=C(C(N)=O)C(NC(=O)[C@H](Cc1ccccc1)NC(=O)[C@@H](C)N(C)C(=O)C(N)Cc1c(C)cc(O)cc1C)c1ccccc1 (stereo not given in full)
EC50 (Mu-type opioid receptor [12]): 1.77 to 5.15 pM | Ki (Mu-type opioid receptor [12]): 0.0109 to 0.0511 nM

CCC1(C)CC(CCNCc2ccccc2O)(c2ccccc2OC)CCO1 (stereo not given)
EC50 [13]: 3.4 µM | EC50 (Mu-type opioid receptor [14]): 1.1 µM

CC(C)C[C@H](NC(=O)C1CCCN1C(=O)[C@@H](N)Cc1ccc(O)cc1)C(=O)N[C@@H](CC(=O)O)C(=O)N[C@@H](CC(C)C)C(=O)N[C@@H](Cc1ccccc1)C(=O)O (stereo not given in full) (H-Y[ξP]LDLF-OH)
IC50 [15]: 0.9 µM | Ratio IC50 (Homo sapiens [16]): 500 | EC50 [17]: 7.94 µM | IC50 [18]: 1.58 µM | Ratio IC50 (Homo sapiens [19]): 500 | IC50 [20]: 24.4 µM | EC50 [21]: 7.94 µM | IC50 (Mu-type opioid receptor [22]): > 2000 µM

C=C(C(N)=O)C(NC(=O)[C@H](Cc1c[nH]c2ccccc12)NC(=O)[C@@H](C)N(C)C(=O)C(N)Cc1c(C)cc(O)cc1C)c1ccccc1 (stereo not given in full)
EC50 (Mu-type opioid receptor [12]): 1.77 to 5.15 pM | Ki (Mu-type opioid receptor [12]): 0.0109 to 0.0511 nM

CCC1CC2CC3c4[nH]c5ccc(O)cc5c4CCN(C2)C13 (stereo not given)
EC50 [23]: 0.11 µM | Emax [24]: 72% | Emax [25]: 13% | EC50 [26]: 8.75 µM | EC50 (Mu-type opioid receptor [27]): 16 µM | Ratio Ki (Homo sapiens [28]): 2 | Ki [29]: 0.72 µM
